Paper PMC5063576, “High Potency VEGFRs/MET/FMS Triple Blockade by TAS-115 Concomitantly Suppresses Tumor Progression and Bone Destruction in Tumor-Induced Bone Disease Model with Lung Carcinoma Cells” (PLoS ONE, 2016)

How the values were obtained:
VEGFR2 = VEGFR2 (Homo sapiens, UniProt P35968); assay: In vitro kinase assay, VEGFR2; type: biochemical; settings: assay as described previously [16]
Protocol: Enzyme inhibition studies were performed using LANCE® Ultra TR-FRET assay technology. Briefly, 0.03 μg/mL dephospho-rhFMS and 100 nM ULightTM-poly GT (4:1) (PerkinElmer) were mixed and incubated for 40 min at 25°C in 10 μL of reaction mixture containing 100 μM ATP, 15 mM tris (hydroxymethyl) aminomethane (Tris (pH 7.5)), 0.01% (v/v) Tween 20, 5 mM MgCl2, 2 mM dithiothreitol and various concentrations of the test compound. […] By referring to the TR-FRET signals of positive (no inhibitor) and negative (EDTA was added before the reaction was started) control wells, the percent inhibition of each well was calculated and the half-maximal inhibitory concentration (IC50) value was determined using a four-parameter sigmoidal equation. The assay of MET and VEGFR2 kinase activity was performed as described previously.

A549-Luc-BM1 cells = assay: Proliferation of A549-Luc-BM1 cells (CellTiter-Glo); type: cell-based; settings: Homo sapiens, 72 hr post drug addition, read-out: 50% growth inhibitory concentration (GI50) for A549-Luc-BM1 cells
Protocol: Supplementary file pone.0164830.s002.tif: S2 Fig The effect of TAS-115 on the proliferation of A549-Luc-BM1 cells. A549-Luc-BM1 cells were seeded on 96 well plates at a density of 10^3 cells/well in RPMI1640 containing 10% FBS. […] At 72 hr post drug addition, cell viability was determined using CellTiter-Glo^TM. The 50% growth inhibition (GI50) values were determined using SAS version 9.2. (TIF) Click here for additional data file.

[1] = system: FMS phosphorylation in human acute monocytic THP-1 leukemia cells; assay: M-CSF-induced FMS phosphorylation in THP-1 cells (immunoblotting); type: cell-based; settings: 2 h, 120 min compound incubation, 30 ng/mL M-CSF, read-out: cellular IC50 against M-CSF-induced FMS phosphorylation
Protocol: Supplementary file pone.0164830.s005.tif: S5 Fig The inhibition of the FMS signaling pathway in human acute monocytic leukemia THP-1 cells by TAS-115. […] After incubation with the compounds for 120 min, THP-1 cells were stimulated with 30 ng/mL of M-CSF and lysed at 1 min post M-CSF stimulation. Specific proteins in the cell lysates were detected using immune blotting and were quantified using Multi Gauge Ver 3.2 (FUJIFILM). IC50 values were calculated using Xlfit 5.3.0.8 (CTC Life Science Corporation, Tokyo, Japan). (TIF) Click here for additional data file.

[2] = system: A549-Luc-BM1 cells in the mouse tibia; assay: Tumor-induced bone disease model, intra-tibial A549-Luc-BM1, bioluminescence imaging; type: in vivo, BALB/c nude mice; settings: day 28; 4 weeks; oral once daily TAS-115 200 mg/kg, cabozantinib 15 mg/kg, sunitinib 40 mg/kg, crizotinib 100 mg/kg; ZA 0.2 mg/kg s.c. twice weekly
Protocol: Tumor growth in the tibiae was monitored by bioluminescence imaging using an IVIS Lumina II Imaging System (PerkinElmer, MA). […] Images were analyzed using the Living Image 3.1 software (PerkinElmer). Total photon flux (TP) was calculated by summation of the photon flux of ventral and right lateral images. One week post tumor implantation, 8–9 animals were allocated to each experimental group by a stratified randomization method with SAS version 9.2 (SAS Institute Japan, Tokyo, Japan) using TP as an allocation parameter, following which drug treatment was then started. […] The doses of each drug were selected based on the maximum tolerated dose (MTD) in in-house studies (data not shown). […] Zoledronic acid (ZA) was subcutaneously injected twice weekly for 4 weeks at a dose of 0.2 mg/kg, which was a previously reported efficacious dose. The allocation day was set as day 0, and drug administration was initiated from day 1. As an indicator of changes in tumor growth during the dosing period, relative total photon flux (RTP), was calculated according to the following formula: RTPday n = (TP on each measurement day) / (TPday 0) × 100. TPday 0 is the TP on the allocation day.

[3] = Body weight change in the bone disease model; type: in vivo, BALB/c nude mice; settings: 4 weeks of treatment; TAS-115 200 mg/kg, crizotinib 100 mg/kg, sunitinib 40 mg/kg with crizotinib 100 mg/kg, oral once daily
Protocol: Changes in body weight (BW) during the dosing period were determined using body weight change (BWC; %) as an indicator, which was calculated using the following formula: BWC; % = 100 × ((BW on each measurement day)–(BWday 0)) / (BWday 0). BWday 0 is the BW on the allocation day. The schedule for the in vivo study is depicted in the Supporting Information (S1 Fig).

[4] = system: M-CSF dependent bone marrow macrophages (MDBMs); assay: In vitro osteoclast differentiation assay (TRAP activity); type: cell-based, mouse; settings: MDBMs with hM-CSF and rhsRANKL for 4 days
Protocol: To prepare macrophage colony-stimulating factor (M-CSF) dependent bone marrow macrophages (MDBMs), bone marrow cells were obtained from the femurs of male BALB/c mice (CLEA Japan) and adherent cells were cultured with human M-CSF (hM-CSF; 10000 U/mL) for 6 days. MDBMs were collected and cultured with hM-CSF (10000 U/mL) and recombinant human soluble RANKL (rhsRANKL)-GST (5 nM) for 4 days (25000 cells/well in a 96 well flat plate) for induction of differentiation into osteoclasts. Test compounds were then added to the culture media at the indicated concentration. TRAP activities were measured using the commercially available TRACP and ALP Assay Kit (TAKARA BIO INC).

[5] = system: FMS, ERK1/2 and AKT phosphorylation in MDBMs; assay: In vitro MDBM signaling, M-CSF-stimulated FMS phosphorylation; type: cell-based, mouse; settings: 1 hr incubation, Western blotting
Protocol: (§1) For analysis of the expression and phosphorylation levels of FMS, MET and VEGFR2, MDBMs were cultured with hM-CSF (20000 U/mL) for 4 days (400000 cells/dish in Suspension Culture Dishes (Corning Inc., NY). The phosphorylation levels of FMS and downstream signaling molecules were then analyzed in these MDBMs following incubation for 1 hr with test compounds at the indicated concentration. The phosphorylation of MET or VEGFR2 was analyzed in these MDBMs following stimulation with rhHGF (100 ng/mL, 10 min) or rhVEGF (100 ng/mL, 5 min), respectively. After incubation, the MDBMs were harvested, the cells were lysed and target signaling proteins were detected by immunoblotting. For analysis of VEGFR2 and its phosphorylated form, the lysate was immunoprecipiated with an anti-VEGFR antibody prior to immunoblotting.

[6] = system: MET phosphorylation in MDBMs; assay: In vitro MDBM signaling, rhHGF-induced MET phosphorylation; type: cell-based, mouse; settings: rhHGF 100 ng/mL 10 min, Western blotting
Protocol: as §1

[7] = system: VEGFR2 phosphorylation in MDBMs; assay: In vitro MDBM signaling, rhVEGF-induced VEGFR2 phosphorylation; type: cell-based, mouse; settings: rhVEGF 100 ng/mL 5 min, immunoprecipitation and Western blotting
Protocol: as §1

Sequence of VEGFR2 (P35968 20-1356, species assumed): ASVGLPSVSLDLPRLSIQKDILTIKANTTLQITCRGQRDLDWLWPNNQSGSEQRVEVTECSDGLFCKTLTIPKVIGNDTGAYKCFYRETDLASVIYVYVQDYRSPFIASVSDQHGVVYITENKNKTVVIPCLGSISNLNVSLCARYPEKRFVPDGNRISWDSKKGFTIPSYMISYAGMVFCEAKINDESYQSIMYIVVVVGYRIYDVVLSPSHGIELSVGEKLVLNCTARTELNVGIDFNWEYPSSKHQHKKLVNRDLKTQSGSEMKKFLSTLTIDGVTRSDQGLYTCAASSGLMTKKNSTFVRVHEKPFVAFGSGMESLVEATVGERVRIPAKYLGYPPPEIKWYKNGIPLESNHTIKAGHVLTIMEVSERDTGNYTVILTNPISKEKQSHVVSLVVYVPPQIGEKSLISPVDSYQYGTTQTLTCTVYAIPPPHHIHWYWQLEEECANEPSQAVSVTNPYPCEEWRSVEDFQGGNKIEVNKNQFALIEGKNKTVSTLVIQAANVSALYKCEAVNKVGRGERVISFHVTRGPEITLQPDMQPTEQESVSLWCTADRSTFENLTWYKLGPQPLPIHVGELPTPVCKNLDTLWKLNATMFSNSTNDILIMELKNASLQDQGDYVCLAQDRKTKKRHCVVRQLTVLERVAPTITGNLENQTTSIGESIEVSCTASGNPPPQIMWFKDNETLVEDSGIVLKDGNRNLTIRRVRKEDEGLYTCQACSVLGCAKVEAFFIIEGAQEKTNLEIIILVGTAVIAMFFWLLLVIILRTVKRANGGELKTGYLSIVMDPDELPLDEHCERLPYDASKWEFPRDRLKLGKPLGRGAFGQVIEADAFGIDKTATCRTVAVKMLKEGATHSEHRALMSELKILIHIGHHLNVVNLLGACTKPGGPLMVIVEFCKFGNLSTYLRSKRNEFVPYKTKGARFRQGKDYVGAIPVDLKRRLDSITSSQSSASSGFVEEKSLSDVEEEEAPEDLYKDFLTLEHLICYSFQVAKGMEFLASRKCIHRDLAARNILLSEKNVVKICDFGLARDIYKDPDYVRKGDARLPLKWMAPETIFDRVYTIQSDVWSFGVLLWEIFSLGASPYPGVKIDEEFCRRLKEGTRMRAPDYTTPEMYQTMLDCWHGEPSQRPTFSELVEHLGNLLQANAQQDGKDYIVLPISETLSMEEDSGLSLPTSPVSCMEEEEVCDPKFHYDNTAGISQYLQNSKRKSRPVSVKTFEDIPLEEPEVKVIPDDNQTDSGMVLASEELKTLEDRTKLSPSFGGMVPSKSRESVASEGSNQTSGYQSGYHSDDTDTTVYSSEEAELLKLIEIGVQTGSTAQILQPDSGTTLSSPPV

CNC(=O)c1cc2c(Oc3ccc(NC(=S)NC(=O)Cc4ccccc4)cc3F)ccnc2cc1OC [TAS-115, 4-[2-fluoro-4-[[[(2-phenylacetyl)amino]thioxomethyl]amino]-phenoxy] -7-methoxy-N-methyl-6-quinolinecarboxamide]
IC50 (VEGFR2): 30 nM
GI50 (A549-Luc-BM1 cells): 11200 nM
IC50 [1]: 12 nM
tumor growth inhibition percentage (TGI) [2]: 85%
effect on body weight [3]: did not cause body weight loss
concentration that potently inhibited / markedly affected RANKL and M-CSF-induced mouse osteoclast formation [4]: 0.3 µM
concentration markedly inhibiting M-CSF-stimulated phosphorylation of FMS, ERK1/2 and AKT [5]: greater than 0.03 μM
concentration inhibiting the phosphorylation of MET [6]: greater than 0.03 μM
concentration inhibiting the phosphorylation of VEGFR2 [7]: greater than 0.03 μM
